Here are results for one compound from patent US11261179B2, “Small molecules” (University of Dundee, priority 2017, dated 2022).

The test system of this assay is HIF-1α / hydroxylated HIF-1α (Hdy-HIF-1α). Put plainly: Western blot of HIF-1α and Hdy-HIF-1α levels in HeLa cells. Format: cell-based, Human. The note with it: HeLa, 1 μM, 10 h. The method, then:
For single time point treatment experiments, cells were transferred in 6-well plates with 5×10^5 cells per well in 2 ml media in order to achieve 80% confluence the following day. Stock concentrations of compounds were prepared by solubilizing the powder in 100% v/v DMSO to the final desired stock concentration.
On the day of treatment, all compound samples were prepared as 100-fold concentrated compound solution using DMEM just before treatment. The experiment samples (20 μL) were added to the 6 well plate containing 2 ml of media. The final DMSO concentration was 0.1% v/v. Cells were incubated at 37° C. and 5% CO2 for the desired time before harvesting.
For time dependent treatment, cells were transferred in 6-well plates with 3×10^5 cells per well in 2 ml media. Samples were prepared as detailed above or the single time point experiments. Treatment was conducted at given time points prior to harvest.
Cells were lysed in lysis buffer (20 mM Tris pH 8, 150 mM NaCl, 1% Triton x100) and a protease inhibitor cocktail (Roche) per 10 ml buffer. For protein extracts, the dishes were placed on ice. The media was aspirated and the tissue layer washed twice with ice-cold phosphate buffer saline (PBS). Lysis buffer (120 μl) was added and the cells detached from the surface with a cell scraper. After removal of the insoluble fraction by centrifugation, the protein concentration of the supernatant was determined by Pierce™ Coomassie (Bradford) Protein Assay Kit. Protein extracts were fractionated by SDS-PAGE on 4-12% Tris-Acetate NuPage® Novex® (Life Technologies) polyacrylamide gels and transferred to a nitrocellulose membrane using wet transfer. The membrane was then blocked with 5% w/v Bovine serum albumin (BSA) in Tris-buffered saline (TBS) with 0.1% w/v Tween-20. For detecting proteins the following primary antibodies in the given concentrations were used: anti-β-Actin (Cell Signaling Technology, 4970S, 13E5) 1:2000, anti-VHL (Cell Signaling Technology, #68547) 1:1000, anti-Hif-1α (BD Biosciences, 610959, clone 54) 1:1000, anti-hydroxy-HIF-1α (Hyp564) (Cell Signaling Techonology; #3434) 1:1000, anti-PHD2 (Bethyl Laboratories; A300-322A) 1:1000, anti-PHD3 (Bethyl Laboratories; A300-327A) 1:1000, anti-CRBN (Proteintech; 11435-1-AP) 1:1000.
Following incubation with a horseradish peroxidase-conjugated secondary antibody (Cell Signaling Technology), the signal was developed using enhanced chemiluminescence (ECL) Western Blotting Detection Kit (Amersham) on Amersham Hyperfilm ECL film (Amersham).
Band quantification was performed using ImageJ software and reported as relative amount as ratio of the each protein band relative to the lane's loading control. The values obtained were then normalized to 0.1% DMSO vehicle control.

The structures appear in SMILES notation.

Regarding `Cc1ncsc1-c1ccc(CNC(=O)[C@@H]2C[C@@H](O)CN2C(=O)[C@@H](NC(=O)COCCOCCOCCOCCOCCOCC(=O)N[C@H](C(=O)N2C[C@H](O)C[C@H]2C(=O)NCc2ccc(-c3scnc3C)cc2)C(C)(C)C)C(C)(C)C)cc1` [CM11, N^1,N^20-bis((S)-1-((2S,4R)-4-hydroxy-2-((4-(4-methylthiazol-5-yl)benzyl)carbamoyl)pyrrolidin-1-yl)-3,3-dimethyl-1-oxobutan-2-yl)-3,6,9,12,15,18-hexaoxaicosanediamide], the HIF-1α level result is recorded as “slight increase” and the “protein levels of Hdy-HIF-1α” value is “detectable albeit low increase”.
